Assay results from US4755522A, “Derivatives of N-[3-(2,4,6-trimethoxybenzoyl)propyl]piperidine, and their use in therapeutics” (priority 1986, dated 1988).
“And” between values parts separate entries of the source, which are not always exact repeats. Identical values can stand only once. “Also recorded” adds a separate entry of the source. Like-named read-outs stand apart in the source and are kept apart here.

Assays:
[1] = system: arrhythmias with aconitine; assay: Arrhythmias with aconitine in the guinea-pig; format: in vivo
Description: (§1) The compound was administered by intravenous route at a dose of 10 mg/kg to a series of 10 albino guinea-pigs of 380 to 495 g, anaesthetized with urethane.
(§2) 5 minutes later, they receive an I.V. perfusion of the product causing arrhythmia at a dosage of 0.09 mg/min. in a volume of 0.6 ml/min.
(§3) The compound is compared with quinidine at a dose of 5 mg/kg I>V> and with a series of controls.
(§4) Lots are drawn for the treatments.
B--Action on arrhythmias with aconitine.

cardiac arrhythmias = assay: Treatment of cardiac arrhythmias in man; format: in vivo; settings: capsules or tablets 200 mg, 3 to 4 per day
Description: The compound of example 1 in the form of capsules or tablets with doses of 200 mg, 3 to 4 per day, has given good results in the treatment of cardiac arrhythmias in man.

[2] = system: arrhythmias with K-strophanthin; assay: Arrhythmias with K-strophanthin in the guinea-pig; format: in vivo; settings: 10 mg/kg I.V.
Description: as §1, §2, §3, §4
A--Action on arrhythmias with K-strophanthin.

ectopic heart-beats = assay: Ectopic heart-beats in dogs with coronary artery ligature a few weeks earlier; format: in vivo, dog; settings: I.D.; for minimal effective dose: Canis lupus familiaris, intraduodenal, read-out: dose re-establishing a normal rhythm
Description: (§5) 3 dogs (average weight, 12 kg) anaesthetized with nembutal, receive the compound by intra-duodenal route at successive doses of 0.1-0.5-2.5-10 and 20 mg/kg.
Two of these three dogs having undergone a ligature of a coronary artery a few weeks earlier still presented numerous ectopic heart-beats.

isoprenaline = assay: Effects of isoprenaline on arterial pressure and cardiac rate after the compound (dog); format: in vivo
Description: (§6) 3 dogs (average weight, 14 kg) anaesthetized with nembutal, received the CRL 41,390 by intra-duodenal route, at successive doses of 0.1-0.5-1-2.5-5-10-20 mg/kg, then a supplementary dose of 10 mg/kg I.V.

awakened dog = assay: Toxic effects in the awakened dog, I.V. cumulative; format: in vivo
cardio-vascular system = assay: Action on the cardio-vascular system in the anaesthetized dog; format: in vivo
Description: (b) Action on the cardio-vascular system (in the dog).
as §5
The arterial pressure, the cardiac rate, the femoral arterial flow, the vertebral arterial flow, the rectal and skin temperatures are all measured. The coloration of the skin is observed.
as §6
The arterial pressure, the cardiac frequency, the femoral arterial flow, the vertebral arterial flow, the rectal and cutaneous temperatures, were measured. The coloration of the skin was observed.

[3] = system: left descending coronary artery ligature; assay: Dog with left descending coronary artery ligatured 24 hours earlier, I.V.; format: in vivo
Description: In a dog of which the left descending coronary artery had been ligatured 24 hours earlier, the compound was administered by intravenous route at increasing doses: 0.5-1-2.5-5-10 mg/kg. every 30 minutes.

mice = format: in vivo; settings: 260 mg/kg I.P. (footnote *)
[4] = system: arrhythmias caused by adrenaline; assay: Arrhythmias caused by adrenaline I.V., 4 days after coronary ligature (dog); format: in vivo
Description: 4 days after the ligature of the coronary, this same dog received injections I.V. of 5 mcg/kg of adrenaline which caused arrhythmias. The number of ectopic beats caused by adrenaline reduces starting from the dose of 5 mg/kg I.V. while the percentage of ectopic beats referred to the total cardiac frequency is 79% in comparison with 100% in the control and 46% 10 minutes after the dose of 10 mg/kg (64% after 40 minutes, 88% after 90 minutes).

[5] = system: arrhythmias caused by injection of adrenaline; assay: Arrhythmias caused by adrenaline + petroleum ether (dog); format: in vivo; settings: 39.1 mg/kg I.D.
Description: In the third dog, arrhythmias were caused by injection of adrenaline (10 mcg/kg), preceded by an intra-trachealinjection of petroleum ether (0.1 ml/kg before and after administration of the 39.1 mg/kg (in cumulative doses) of the compound. On the E.C.G., the number of beats of sinusoidal origin and the number of ectopic beats per minute are counted which follow the injection of adrenaline. |Dose of compound | Number of beats in 1 minute |mg/kg I.D. ectopic sinusoidal

[6] = system: ventricular fibrillation (V.F.) by inhalation of chloroform; assay: Lawson's test in mice (ventricular fibrillation by inhalation of chloroform); format: in vivo
Description: (c) Anti-arrhythmic action in the mouse. Research on the anti-arrhythmic activity by intraperitoneal route on Lawson's test in mice (ventricular fibrillation (V.F.) by inhalation of chloroform, all or nothing response) has given the following results (10 mice per dose).

noradrenaline = assay: Hypertension with noradrenaline after the compound (dog); format: in vivo
Description: as §5, §6
Hypertension to noradrenaline is not modified: at 2 mcg/kg of noradrenaline, the systolic arterial pressure passes, after administration of the product, from 160 to 290 mmHg/161 to 289 mmHg in the control.

Structure (SMILES): COc1cc(OC)c(C(=O)CCCN2CCCC(CO)C2)c(OC)c1.Cl (stereo not shown) [CRL 41,391, N-[3-(2,4,6-trimethoxybenzoyl)propyl]-3-piperidinemethanol hydrochloride]
- increase of cardiac frequency (average) ([1]; 10 mg/kg I.V.): 12 beats/minute
- action on aconitine compared with quinidine ([1]; 10 mg/kg I.V. vs quinidine 5 mg/kg): greater than that observed after pre-treatment with 5 mg/kg of quinidine
- cardiac frequency (conclusion, K-strophanthin and aconitine) ([1]; 10 mg/kg I.V., anaesthetized guinea-pig): without modifying or with very moderate increase in the cardiac frequency
- appearance of incidents in the E.C.G. due to aconitine ([1]; 10 mg/kg I.V., hydrochloride): significantly retards; also recorded: significantly delays
- treatment of cardiac arrhythmias in man (cardiac arrhythmias): good results
- appearance of incidents in the E.C.G. due to K-strophanthin [2]: significantly delays
- cardiac frequency [2]: does not significantly modify the cardiac frequency
- minimal effective dose (ectopic heart-beats; one dog): 2.5 mg/kg
- minimal effective dose (ectopic heart-beats; the other dog): 10 mg/kg
- normal rhythm (ectopic heart-beats; two dogs): re-established a normal rhythm in these two dogs
- diastolic arterial pressure after the product, before isoprenaline (isoprenaline; 39.1 mg/kg I.D. cumulative, control 120): 107 mmHg
- cardiac rate after the product, before isoprenaline (isoprenaline; 39.1 mg/kg I.D. cumulative, control 157): 160 beats/minute
- diastolic arterial pressure after the product, with isoprenaline (isoprenaline; 10 mcg/kg isoprenaline I.V., 39.1 mg/kg I.D. cumulative, control 37): 36 mmHg
- change of diastolic arterial pressure with isoprenaline (isoprenaline; 10 mcg/kg isoprenaline I.V., 39.1 mg/kg I.D. cumulative, control 83): 71 mmHg
- cardiac rate after the product, with isoprenaline (isoprenaline; 10 mcg/kg isoprenaline I.V., 39.1 mg/kg I.D. cumulative, control 273): 255 beats/minute
- effects of isoprenaline on arterial pressure and cardiac rate (isoprenaline; after accumulated dose 39.1 mg/kg I.D.): very slightly reduced
- nictitating membrane (awakened dog; 70 mg/kg I.V. total): released for 10 minutes
- vomiting, cumulative dose (awakened dog; I.V., 5 minutes after the injection, hydrochloride): 40 mg/kg and 70 mg/kg
- somnolence (awakened dog; I.V., total 70 mg/kg): a certain somnolence was observed
- effect on heart rate (cardio-vascular system; 20 mg/kg I.D.): slightly reduces the heart rate
- minimal effective dose (cardio-vascular system; Canis lupus familiaris, intraduodenal, I.D., read-out: dose from which femoral flow increases): 5 mg/kg
- effect on rectal and cutaneous temperatures (cardio-vascular system; I.D.): does not modify the rectal and cutaneous temperatures
- effect on vertebral flow (cardio-vascular system; I.D.): reduces the vertebral flow
- effect on femoral flow (cardio-vascular system; I.D., starting at 5 mg/kg): increases the femoral flow
- effect on the arterial pressure (cardio-vascular system; intra-duodenal, successive doses to 20 mg/kg, nembutal): no effect on the arterial pressure
- sinusoidal beats ([3]; 2.5 mg/kg I.V.): ≥ 5%
- sinusoidal beats ([3]; 5 mg/kg I.V., 5 minutes after injection): 19%
- vomitting ([3]; 10 mg/kg I.V.): brief vomitting
- sinusoidal beats ([3]; 20 minutes after the injection): 41%
- sinusoidal beats ([3]; 40 minutes): 25%
- sinusoidal beats ([3]; 60 minutes): 15%
- minimal effective dose ([3]; Canis lupus familiaris, iv, I.V., zero sinusoidal beats in the control, read-out: dose from which sinusoidal beats increase): 2.5 mg/kg
- change of cardiac frequency ([3]; after 10 mg/kg I.V.): -25%
- cardiac frequency ([3]; after 10 mg/kg I.V., from 231): 174 beats/minute
- convulsions (mice): convulsions
- ectopic beats referred to the total cardiac frequency ([4]; 5 mg/kg I.V., control 100%): 79%
- ectopic beats referred to the total cardiac frequency ([4]; 10 mg/kg I.V., after 40 minutes): 64%
- ectopic beats referred to the total cardiac frequency ([4]; 10 mg/kg I.V., after 90 minutes): 88%
- ectopic beats referred to the total cardiac frequency ([4]; 10 minutes after 10 mg/kg I.V.): 46%
- minimal effective dose ([4]; Canis lupus familiaris, iv, I.V., adrenaline 5 mcg/kg I.V., read-out: dose from which ectopic beats caused by adrenaline are reduced): 5 mg/kg
- number of ectopic beats caused by adrenaline+petroleum ether [5]: strongly reduces the number of ectopic beats
- Number of beats in 1 minute, sinusoidal ([5]; 35 at dose 0): 173
- Number of beats in 1 minute, ectopic ([5]; 163 at dose 0): 26
- % of mice not presenting V.F. ([6]; 5 mg/kg I.P.): 22%
- % of mice not presenting V.F. ([6]; 10 mg/kg I.P.): 50%
- % of mice not presenting V.F. ([6]; 20 mg/kg I.P.): 70%
- systolic pressure after the product, before noradrenaline (noradrenaline; 39.1 mg/kg I.D. cumulative, control 153): 149 mmHg
- systolic pressure after the product, with noradrenaline (noradrenaline; 2 mcg/kg noradrenaline I.V., 39.1 mg/kg I.D. cumulative, control 271): 256 mmHg
- hypertension with noradrenaline (noradrenaline; after 39.1 mg/kg I.D. cumulative): slightly reduced
